Measured values: US20110257258A1 (priority 2006, published 2011)

Columns and labels:
H5N1 = assay type: cell-based
Avian Influenza virus [1] = system: Avian Influenza virus; set-up: species or system Human; details: in vivo
Avian Influenza virus [2] = system: Avian Influenza virus; set-up: species or system Human; details: in vivo; remark: listed apart in the source

Compound	inhibits H5N1 infections in mammalian cells by blocking the attachment and entry into the cells (H5N1)	adults in the test group developing Avian Influenza symptoms (Avian Influenza virus [1])	abatement of Avian Influenza symptoms (Avian Influenza virus [2])	recovery from the Avian Influenza illness (Avian Influenza virus [2])
O=C(O[C@@H]1Cc2c(O)cc(O)cc2O[C@@H]1c1cc(=O)c(O)c2c(O)c(O)cc([C@H]3Oc4cc(O)cc(O)c4C[C@H]3O)c2c1)c1cc(O)c(O)c(O)c1 [theaflavin-3-monogallate]	inhibits H5N1 infections	–	–	–
O=c1c(O)cc([C@H]2Oc3cc(O)cc(O)c3C[C@H]2O)cc2c([C@H]3Oc4cc(O)cc(O)c4C[C@H]3O)cc(O)c(O)c12 [theaflavin]	inhibits H5N1 infections	None	abate more rapidly than normal	fully recovers
(−)-epigallocatechin gallate [EGCG]	inhibits H5N1 infections	–	–	–
theaflavin-3,3′-digallate	inhibits H5N1 infections	–	–	–
theaflavin-3′-gallate	inhibits H5N1 infections	–	–	–
